Assay results taken from ChEMBL document CHEMBL1201862, “PubChem BioAssay data set” (2004).
Active and inactive are the calls of the source.

Assays:
[1] = molecular target: FAD-linked sulfhydryl oxidase ALR (Homo sapiens, UniProt P55789); experiment: inhibitors of human ALR sulfhydryl oxidase, dose response, biochemical, H2O2 detection, luminescence, cherry-pick (AID 493248)
[2] = molecular target: T1, Polyadenylate-binding protein 1 (Homo sapiens, UniProt P11940); experiment: PABP1 MLLE–PAM2 interaction inhibitors, dose response, miRNA deadenylation inhibitor project, biochemical, fluorescence polarization, Cy5-PAM2 peptide, secondary (AID 602260); format: functional; details: read-out: IC50_Mean
[3] = molecular target: T1, Polyadenylate-binding protein 1; experiment: PABP1 MLLE–PAM2 binding inhibitor potency, dose response, biochemical, fluorescence polarization, FITC-PAM2 peptide (AID 602259); format: functional; details: read-out: IC50_Mean
[4] = molecular target: Voltage-dependent T-type calcium channel subunit alpha-1H (Homo sapiens, UniProt O95180); format: functional;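 further: channel activity triggered by adding a high calcium stimulation buffer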
[5] = control 3'UTR Renilla luciferase suppression, dose response, counter-screen for Shn3 inhibitor project, cell-based, Clone20-Shn3RL, cherry-picked (AID 624133); format: functional
INS1 = experiment: beta cell apoptosis inhibitors, cytokine rescue, dose response, luminescence, retest (AID 449756); format: functional, cell-based; details: Rattus norvegicus;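 further: cell death triggered by IL-1 beta plus TNF-alpha plus IFN-gamma mixture; protective hits raise ATP signal compared with cytokine alone wells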
[6] = HepG2 cell cytotoxicity, dose response, cytotoxicity control for Shn3 inhibitor project, CellTiter-Glo, cherry-picked (AID 624134); format: functional, cell-based
[7] = Shn3 3'UTR reporter inhibitors, dose response, cell-based, Clone20 osteoblasts, firefly luciferase, cherry-picked (AID 624132); format: functional;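 further: firefly luciferase luminescence from reporter carrying the Shn3 3'UTR in osteoblasts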
[8] = molecular target: T2, High affinity choline transporter 1 (Homo sapiens, UniProt Q9GZV3); experiment: CHT inhibitors, dose response, cell-based, 5-point CRC, membrane potential dye (AID 504840); format: functional
T2 sequence (Q9GZV3 whole entry): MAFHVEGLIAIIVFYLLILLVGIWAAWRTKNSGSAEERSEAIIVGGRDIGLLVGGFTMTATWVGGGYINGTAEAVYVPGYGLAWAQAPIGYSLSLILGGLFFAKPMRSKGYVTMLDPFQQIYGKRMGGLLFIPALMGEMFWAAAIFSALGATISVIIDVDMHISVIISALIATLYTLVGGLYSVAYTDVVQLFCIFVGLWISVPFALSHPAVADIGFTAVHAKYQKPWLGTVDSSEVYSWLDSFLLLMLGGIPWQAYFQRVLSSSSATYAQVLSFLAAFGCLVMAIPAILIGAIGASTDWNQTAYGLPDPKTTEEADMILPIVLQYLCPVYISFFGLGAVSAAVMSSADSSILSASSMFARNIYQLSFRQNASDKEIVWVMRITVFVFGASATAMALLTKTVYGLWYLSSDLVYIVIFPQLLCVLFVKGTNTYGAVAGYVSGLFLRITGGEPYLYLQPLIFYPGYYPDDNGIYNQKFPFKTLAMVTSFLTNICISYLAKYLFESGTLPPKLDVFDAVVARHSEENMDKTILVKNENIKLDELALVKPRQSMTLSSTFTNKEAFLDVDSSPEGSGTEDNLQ

cells [9] = format: functional, cell-based
cells [10] = format: functional, cell-based; remark: listed apart in the source
Fatty acid synthase [11] = molecular target: T3, Fatty acid synthase (Homo sapiens, UniProt P49327); experiment: FAS thioesterase domain inhibitors, dose response, biochemical, kinetic fluorescence intensity (AID 624326); format: functional;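 further: rate of fluorescence rise from hydrolysis of a fluorogenic O-methyl fluorescein ester substrate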
Fatty acid synthase [12] = molecular target: T3, Fatty acid synthase; experiment: FAS thioesterase domain inhibitors, dose response, biochemical, endpoint fluorescence intensity, uHTS hits (AID 624327); format: functional;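 further: fluorescence from hydrolysis of an O-methyl fluorescein acyl ester substrate by the enzyme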
Estrogen receptor beta = Estrogen receptor beta (Homo sapiens, UniProt Q92731);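 further: recombinant ER-beta bound to coactivator SRC1 peptide in presence of estradiol agonist; inhibitors block coactivator peptide binding and lower the FRET signal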
[13] = inhibitors of intracellular T. cruzi replication, confirmation, NIH3T3 host cells, beta-gal luminescence (AID 2044); format: functional, cell-based;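 further: intracellular parasites grown in NIH/3T3 mouse fibroblasts as host cells; luminescent beta-galactosidase reporter signal from transgenic T. cruzi replicating inside host cells; inhibitors lower the luminescence signal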
[14] = cytotoxicity toward NIH3T3 fibroblasts, dose response, counter-screen, cell-based, ATP luminescence, mouse fibroblasts (AID 2010); format: functional;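 further: cells exposed to compound for about 90 hours before reading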
cells [15] = format: functional
[16] = THP-1 cell cytotoxicity, dose response, cytotoxicity control for non-replicating M. tuberculosis project (AID 489025); format: functional
Paired box protein Pax-8 = Paired box protein Pax-8 (Homo sapiens, UniProt Q06710); experiment: inhibitors of PAX8-driven TPO luciferase reporter, dose response, RMG-I cells, cherry-pick (AID 687027); format: functional, cell-based;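 further: luciferase reporter driven by Pax8 target thyroperoxidase promoter measured by SteadyGlo luminescence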
Protein skinhead-1 = molecular target: T4, Protein skinhead-1 (Caenorhabditis elegans, UniProt P34707); format: functional
T4 sequence (P34707 whole entry): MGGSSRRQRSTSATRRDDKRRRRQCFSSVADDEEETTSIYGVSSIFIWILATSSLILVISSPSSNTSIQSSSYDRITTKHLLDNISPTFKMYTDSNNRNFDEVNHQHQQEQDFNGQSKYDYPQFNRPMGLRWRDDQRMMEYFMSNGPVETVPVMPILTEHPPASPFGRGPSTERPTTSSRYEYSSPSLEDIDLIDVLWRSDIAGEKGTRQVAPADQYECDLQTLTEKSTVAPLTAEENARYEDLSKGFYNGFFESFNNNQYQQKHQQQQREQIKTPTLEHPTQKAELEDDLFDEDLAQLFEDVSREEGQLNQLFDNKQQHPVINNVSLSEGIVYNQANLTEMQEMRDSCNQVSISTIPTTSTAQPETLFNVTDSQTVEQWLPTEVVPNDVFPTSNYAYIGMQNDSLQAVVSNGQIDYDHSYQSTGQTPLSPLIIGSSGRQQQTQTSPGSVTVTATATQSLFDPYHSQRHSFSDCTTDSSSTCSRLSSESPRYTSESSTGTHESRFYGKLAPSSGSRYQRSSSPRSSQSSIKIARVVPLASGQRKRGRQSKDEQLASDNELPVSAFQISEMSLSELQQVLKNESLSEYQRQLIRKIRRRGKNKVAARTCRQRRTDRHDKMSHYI

[17] = NIH-3T3 fibroblast cytotoxicity, dose response, cytotoxicity control, cell-based, fluorescence, Alamar Blue, secondary assay (AID 2327); format: functional;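 further: NIH-3T3 mouse fibroblasts cultured with fluconazole at 8 µg/mL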
[18] = molecular target: Glyceraldehyde-3-phosphate dehydrogenase (Homo sapiens, UniProt P04406)

Sequence of Voltage-dependent T-type calcium channel subunit alpha-1H (O95180 whole entry): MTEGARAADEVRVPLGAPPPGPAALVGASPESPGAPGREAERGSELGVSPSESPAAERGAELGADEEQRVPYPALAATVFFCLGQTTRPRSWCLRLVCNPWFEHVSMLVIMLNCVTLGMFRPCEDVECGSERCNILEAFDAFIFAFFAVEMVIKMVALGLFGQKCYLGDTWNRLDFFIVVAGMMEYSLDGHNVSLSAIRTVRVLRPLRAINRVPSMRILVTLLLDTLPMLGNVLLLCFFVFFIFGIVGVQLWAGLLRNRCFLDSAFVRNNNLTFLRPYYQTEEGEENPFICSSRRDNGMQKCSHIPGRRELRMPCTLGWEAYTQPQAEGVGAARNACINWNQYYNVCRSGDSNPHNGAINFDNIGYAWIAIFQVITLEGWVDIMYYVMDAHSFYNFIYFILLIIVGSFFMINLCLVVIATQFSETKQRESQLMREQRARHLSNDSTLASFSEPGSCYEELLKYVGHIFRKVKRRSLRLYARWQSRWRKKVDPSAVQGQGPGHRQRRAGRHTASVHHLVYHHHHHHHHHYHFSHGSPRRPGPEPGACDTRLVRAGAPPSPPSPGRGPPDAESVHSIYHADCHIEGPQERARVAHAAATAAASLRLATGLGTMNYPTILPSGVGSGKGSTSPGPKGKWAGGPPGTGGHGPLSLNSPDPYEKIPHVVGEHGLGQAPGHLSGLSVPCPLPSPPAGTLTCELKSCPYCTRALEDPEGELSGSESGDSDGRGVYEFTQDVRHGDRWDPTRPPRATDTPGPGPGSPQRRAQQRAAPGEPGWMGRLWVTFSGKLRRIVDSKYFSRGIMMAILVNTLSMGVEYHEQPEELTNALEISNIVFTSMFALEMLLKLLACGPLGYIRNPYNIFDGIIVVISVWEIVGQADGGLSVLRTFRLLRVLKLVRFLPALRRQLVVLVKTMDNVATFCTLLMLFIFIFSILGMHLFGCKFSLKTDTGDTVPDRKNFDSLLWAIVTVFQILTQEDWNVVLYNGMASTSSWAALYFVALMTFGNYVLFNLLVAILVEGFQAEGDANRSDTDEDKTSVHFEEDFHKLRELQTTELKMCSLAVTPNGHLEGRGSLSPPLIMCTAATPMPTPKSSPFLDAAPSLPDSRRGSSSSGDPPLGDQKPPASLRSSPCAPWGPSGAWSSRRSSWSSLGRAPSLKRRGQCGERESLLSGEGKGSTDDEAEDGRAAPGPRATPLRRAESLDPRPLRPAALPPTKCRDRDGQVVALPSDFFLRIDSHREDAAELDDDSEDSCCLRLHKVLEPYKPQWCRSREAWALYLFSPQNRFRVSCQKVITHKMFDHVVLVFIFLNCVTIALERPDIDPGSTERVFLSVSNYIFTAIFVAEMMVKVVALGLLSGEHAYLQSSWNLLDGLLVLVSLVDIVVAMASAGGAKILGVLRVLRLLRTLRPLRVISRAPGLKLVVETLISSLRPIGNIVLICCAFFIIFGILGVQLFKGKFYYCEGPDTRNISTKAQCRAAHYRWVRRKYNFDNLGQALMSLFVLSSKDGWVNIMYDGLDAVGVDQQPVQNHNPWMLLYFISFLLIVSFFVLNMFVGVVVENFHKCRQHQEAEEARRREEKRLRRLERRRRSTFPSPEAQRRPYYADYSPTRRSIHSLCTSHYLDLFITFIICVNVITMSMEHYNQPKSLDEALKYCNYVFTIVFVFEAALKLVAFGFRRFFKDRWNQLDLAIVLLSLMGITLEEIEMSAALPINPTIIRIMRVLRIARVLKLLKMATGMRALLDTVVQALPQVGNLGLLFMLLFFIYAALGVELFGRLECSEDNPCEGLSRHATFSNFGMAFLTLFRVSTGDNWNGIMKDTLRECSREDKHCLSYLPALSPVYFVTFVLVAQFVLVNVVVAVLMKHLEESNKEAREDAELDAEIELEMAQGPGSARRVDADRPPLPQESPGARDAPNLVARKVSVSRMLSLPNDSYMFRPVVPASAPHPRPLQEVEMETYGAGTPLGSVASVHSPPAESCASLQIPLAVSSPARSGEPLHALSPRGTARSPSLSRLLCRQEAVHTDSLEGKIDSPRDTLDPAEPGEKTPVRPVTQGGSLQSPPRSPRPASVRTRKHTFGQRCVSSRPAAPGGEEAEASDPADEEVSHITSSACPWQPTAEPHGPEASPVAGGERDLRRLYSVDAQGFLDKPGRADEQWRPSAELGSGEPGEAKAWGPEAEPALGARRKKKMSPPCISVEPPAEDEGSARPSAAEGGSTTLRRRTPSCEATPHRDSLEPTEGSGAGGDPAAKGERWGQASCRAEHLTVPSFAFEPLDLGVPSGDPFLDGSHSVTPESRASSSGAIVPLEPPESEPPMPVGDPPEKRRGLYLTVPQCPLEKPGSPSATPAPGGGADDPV
T3 sequence (P49327 whole entry, the tested form may be a part): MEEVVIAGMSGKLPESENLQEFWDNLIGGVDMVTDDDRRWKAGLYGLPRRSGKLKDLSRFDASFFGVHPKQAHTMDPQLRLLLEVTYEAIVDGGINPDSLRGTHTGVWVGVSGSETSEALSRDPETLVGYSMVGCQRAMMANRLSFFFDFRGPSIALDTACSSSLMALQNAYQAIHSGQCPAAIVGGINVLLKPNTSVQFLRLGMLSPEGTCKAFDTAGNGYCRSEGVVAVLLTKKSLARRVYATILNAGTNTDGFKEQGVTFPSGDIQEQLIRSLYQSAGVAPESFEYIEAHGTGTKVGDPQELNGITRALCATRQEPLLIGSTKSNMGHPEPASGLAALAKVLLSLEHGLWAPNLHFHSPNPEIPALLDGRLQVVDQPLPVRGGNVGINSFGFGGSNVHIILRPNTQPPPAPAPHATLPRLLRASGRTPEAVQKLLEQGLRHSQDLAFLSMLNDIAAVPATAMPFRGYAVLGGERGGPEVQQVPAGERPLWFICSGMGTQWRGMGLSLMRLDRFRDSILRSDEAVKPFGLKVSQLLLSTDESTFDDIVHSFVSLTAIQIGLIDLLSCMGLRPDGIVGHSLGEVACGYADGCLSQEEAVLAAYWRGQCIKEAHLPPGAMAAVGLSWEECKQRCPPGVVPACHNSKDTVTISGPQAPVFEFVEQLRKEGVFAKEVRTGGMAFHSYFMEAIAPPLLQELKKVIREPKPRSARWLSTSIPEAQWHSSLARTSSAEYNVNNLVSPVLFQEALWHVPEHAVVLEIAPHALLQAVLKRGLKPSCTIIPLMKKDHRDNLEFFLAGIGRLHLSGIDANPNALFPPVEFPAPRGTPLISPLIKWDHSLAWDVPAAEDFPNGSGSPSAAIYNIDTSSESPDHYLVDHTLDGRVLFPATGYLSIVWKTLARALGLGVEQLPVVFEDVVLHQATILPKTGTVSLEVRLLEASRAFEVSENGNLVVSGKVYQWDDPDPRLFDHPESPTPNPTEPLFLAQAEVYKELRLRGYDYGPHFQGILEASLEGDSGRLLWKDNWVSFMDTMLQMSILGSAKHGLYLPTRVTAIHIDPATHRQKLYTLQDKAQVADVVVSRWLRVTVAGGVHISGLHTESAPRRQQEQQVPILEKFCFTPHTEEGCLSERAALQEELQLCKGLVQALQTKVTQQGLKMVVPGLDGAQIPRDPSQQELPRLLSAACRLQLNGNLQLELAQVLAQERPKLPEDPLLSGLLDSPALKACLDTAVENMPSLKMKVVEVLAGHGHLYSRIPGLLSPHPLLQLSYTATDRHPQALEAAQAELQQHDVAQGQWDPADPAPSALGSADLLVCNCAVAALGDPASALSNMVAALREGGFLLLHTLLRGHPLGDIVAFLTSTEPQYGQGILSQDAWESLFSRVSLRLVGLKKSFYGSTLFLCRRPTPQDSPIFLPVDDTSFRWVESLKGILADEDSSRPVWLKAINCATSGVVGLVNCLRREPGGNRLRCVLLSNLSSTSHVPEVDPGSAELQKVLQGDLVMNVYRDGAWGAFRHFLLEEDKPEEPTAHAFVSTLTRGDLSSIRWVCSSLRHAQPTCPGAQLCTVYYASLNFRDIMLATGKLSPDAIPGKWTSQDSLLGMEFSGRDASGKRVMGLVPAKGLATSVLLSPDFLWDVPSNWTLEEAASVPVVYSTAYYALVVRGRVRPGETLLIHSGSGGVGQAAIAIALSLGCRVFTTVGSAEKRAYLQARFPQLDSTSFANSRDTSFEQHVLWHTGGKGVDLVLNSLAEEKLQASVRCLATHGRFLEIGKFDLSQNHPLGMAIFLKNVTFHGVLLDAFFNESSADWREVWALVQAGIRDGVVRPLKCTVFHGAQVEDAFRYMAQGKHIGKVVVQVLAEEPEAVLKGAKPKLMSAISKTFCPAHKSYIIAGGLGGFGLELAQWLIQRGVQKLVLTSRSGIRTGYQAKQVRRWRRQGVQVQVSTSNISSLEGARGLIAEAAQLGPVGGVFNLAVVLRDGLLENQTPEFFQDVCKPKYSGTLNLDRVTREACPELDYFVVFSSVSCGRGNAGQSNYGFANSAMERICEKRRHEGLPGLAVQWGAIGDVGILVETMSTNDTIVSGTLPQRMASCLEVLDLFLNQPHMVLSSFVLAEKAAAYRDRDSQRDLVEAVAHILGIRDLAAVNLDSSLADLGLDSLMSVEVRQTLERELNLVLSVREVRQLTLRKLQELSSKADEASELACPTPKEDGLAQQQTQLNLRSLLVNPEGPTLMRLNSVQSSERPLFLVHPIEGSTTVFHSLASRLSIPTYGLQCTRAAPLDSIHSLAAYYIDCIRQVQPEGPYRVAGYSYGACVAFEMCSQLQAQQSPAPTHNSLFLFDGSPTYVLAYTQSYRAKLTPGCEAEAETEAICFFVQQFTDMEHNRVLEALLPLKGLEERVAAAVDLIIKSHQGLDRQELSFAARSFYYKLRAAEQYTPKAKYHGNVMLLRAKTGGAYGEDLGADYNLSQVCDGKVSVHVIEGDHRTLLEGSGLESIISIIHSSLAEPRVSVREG
Sequence of FAD-linked sulfhydryl oxidase ALR (P55789 whole entry): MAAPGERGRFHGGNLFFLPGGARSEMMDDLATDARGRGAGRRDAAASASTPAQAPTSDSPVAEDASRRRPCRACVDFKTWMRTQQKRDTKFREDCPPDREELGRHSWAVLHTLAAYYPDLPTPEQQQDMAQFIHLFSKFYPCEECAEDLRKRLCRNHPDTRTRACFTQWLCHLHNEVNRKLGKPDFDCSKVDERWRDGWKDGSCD

## Nc1nc(-c2ccc3ccccc3c2)cs1
[1]
  AC50: 0.188 µM (active)

## O=C(NC(=S)NNS(=O)(=O)c1ccc(Cl)cc1)c1cccnc1
[2]
  IC50: > 66 µM (inactive)
[3]
  IC50: > 66 µM (inactive)

## O=C(Nc1ccc2c(c1)OCO2)N1CCN(c2ncc(C(F)(F)F)cc2Cl)CC1
[4]
  EC50: 1.99 µM (active)

## Cc1cc(N2CCCC2=O)cc(C)c1S(=O)(=O)NCCOc1ccc(C(C)(C)C)cc1
[5]
  AC50: 2.36 µM (active)
INS1
  AC50: 2.58 µM (active)
[6]
  AC50: 51.4 µM (active)
[7]
  AC50: 1.15 µM (active)

## COc1ccccc1CCC(=O)OCC(=O)c1c(N)n(CC(C)C)c(=O)n(C)c1=O
[8]
  IC50: 14.8 µM (active)

## Cc1ccc(-c2cc(C(F)(F)F)n3nc(C(=O)Nc4c(C)n(C)n(-c5ccccc5)c4=O)cc3n2)cc1
Cells [9]
  EC50: > 350 µM (not active)
Cells [10]
  EC50: > 350 µM (not active)

## COc1ccccc1NC(=O)C1CCCN(c2ncnc3c2nc2n3CCCCC2)C1 (configuration not stated)
[8]
  IC50: 15.1 µM (active)

## O=C(CCNC(=O)c1ccc([N+](=O)[O-])cc1)NCCc1ccccc1
Fatty acid synthase [11]
  IC50: 11.2 µM (active)
Fatty acid synthase [12]
  IC50: 10.3 µM (active)

## CCCCC(CC)C(=O)NCc1ccccc1OC (configuration not stated)
Estrogen receptor beta
  IC50: > 50 µM (not active)

## CCC(SC1=NCCS1)C(=O)Nc1ccc(S(N)(=O)=O)cc1 (configuration not stated)
[2]
  IC50: > 66 µM (inactive)
[3]
  IC50: > 66 µM (inactive)

## Oc1ccc(-c2nnc(S)n2-c2ccc(F)c(Cl)c2)nn1
[1]
  AC50: 7.36 µM (active)

## CN(CC(=O)N1CCN(c2ccccc2)CC1)S(=O)(=O)c1c[nH]cn1
[1]
  AC50: 4.58 µM (active)

## CCc1ccc(Nc2c([N+](=O)[O-])nn(-c3ccc4c(c3)OCCO4)[n+]2[O-])cc1
[13]
  EC50: 0.447 µM (active)
[14]
  EC50: > 60 µM (not active)
[8]
  IC50: 12.6 µM (active)

## Cc1ccc([N+](=O)[O-])cc1NC(=O)CCSc1ccc(Cl)cc1
Fatty acid synthase [11]
  IC50: 7.75 µM (active)
Fatty acid synthase [12]
  IC50: 6.23 µM (active)

## O=C1NC(c2ccccc2)(C(F)(F)F)SC2=CCCCCN12 (configuration not stated)
[2]
  IC50: > 66 µM (inactive)
[3]
  IC50: > 66 µM (inactive)

## CCN(CC)c1ccc(NC(=O)c2ccc(Br)o2)c(C)c1
[1]
  AC50: 1.61 µM (active)

## CC(C)c1onc(C(=O)Nc2sc3c(c2C#N)CCC3)c1[N+](=O)[O-]
Cells [9]
  EC50: > 350 µM (not active)
Cells [10]
  EC50: > 350 µM (not active)

## CC(=O)Nc1ccc(SC[C@H](Cc2ccccc2)N2CC[C@@H](C(C)(C)C)CCC2=O)cc1
[2]
  IC50: > 66 µM (inactive)
[3]
  IC50: > 66 µM (inactive)

## Cc1cccc2cc(C#N)c(NCCCn3ccnc3)nc12
Cells [15]
  IC50: 43.2 µM (active)
[16]
  CC50: > 40 µM (active)

## C[C@H](CO)N1C[C@H](C)[C@@H](CN(C)S(=O)(=O)c2ccc(Cl)cc2)OCCCC[C@H](C)Oc2ccc(NS(=O)(=O)c3ccc(Cl)cc3)cc2C1=O
Paired box protein Pax-8
  AC50: 4.34 µM (active)

## Clc1ccc(OCCCCSc2ncccn2)cc1
Protein skinhead-1
  IC50: 21.7 µM (active)
[2]
  IC50: > 66 µM (inactive)
[3]
  IC50: > 66 µM (inactive)

## Cc1ccc(C(=O)NCc2ccco2)cc1S(=O)(=O)Nc1cccc(Cl)c1
[17]
  EC50: > 150 µM (inactive)
[4]
  EC50: 5.11 µM (active)

## CCCn1c2ccccc2c2cnn(CC(=O)NCCCN3CCCCC3)c(=O)c21
[8]
  IC50: 12.6 µM (active)

## O=C(CCc1ccccc1F)N1CCN(c2ccccc2)CC1
[1]
  AC50: > 100 µM (inactive)

## c1ccc(CCc2nn3c(Cc4ccccc4)nnc3s2)cc1
[8]
  IC50: 27.5 µM (active)

## CCOC(=O)N1CCc2[nH]c3ccc(C)cc3c2C1
[2]
  IC50: > 66 µM (inactive)
[3]
  IC50: 55.2 µM (inactive)

## CCc1cccc(NC(=O)COC(=O)c2cc([N+](=O)[O-])ccc2N2CCOCC2)c1
Fatty acid synthase [11]
  IC50: 0.393 µM (active)
Fatty acid synthase [12]
  IC50: 0.29 µM (active)

## CC(C)Oc1ccc(C2CC(=O)N(Nc3ccc([N+](=O)[O-])cc3[N+](=O)[O-])C2=O)cc1 (configuration not stated)
Fatty acid synthase [11]
  IC50: 0.846 µM (active)
Fatty acid synthase [12]
  IC50: 0.577 µM (active)

## COc1ccccc1OCC(O)Cn1c(=N)n(Cc2ccccc2)c2ccccc21 (configuration not stated)
[5]
  AC50: 10.7 µM (active)
[6]
  AC50: 22.1 µM (active)
[7]
  AC50: 4.01 µM (active)

## O=C(NNS(=O)(=O)c1ccc(C(=O)NC2CCCC2)cc1)c1ccncc1
[1]
  AC50: 1.67 µM (active)

## O=c1c2ccccc2nc(COc2ccccc2)n1/N=C/c1ccc(O)cc1O
Cells [9]
  EC50: 31.9 µM (active)
[13]
  EC50: 2.48 µM (active)
INS1
  AC50: 4.63 µM (active)
Cells [10]
  EC50: 10.6 µM (active)
[14]
  EC50: 8.68 µM (active)

## CCOC(=O)N1CCN(C(=O)c2ccc(Cn3c(=S)[nH]c4cc(OCC)c(OCC)cc4c3=O)cc2)CC1
Cells [9]
  EC50: > 350 µM (not active)
Cells [10]
  EC50: > 350 µM (not active)

## Cc1ccc(-c2nnc(COC(=O)c3cc(O)nc4ccccc34)o2)cc1
Fatty acid synthase [11]
  IC50: 9.54 µM (active)
Fatty acid synthase [12]
  IC50: 10.4 µM (active)

## O=C(COC(=O)c1cc([N+](=O)[O-])ccc1N1CCOCC1)NCc1ccccc1
Fatty acid synthase [11]
  IC50: 0.683 µM (active)
Fatty acid synthase [12]
  IC50: 0.841 µM (active)

## CC[n+]1c(/C=C(\C)Nc2ccccc2)sc2ccccc21
[16]
  CC50: 30.1 µM (active)

## O=C(CN1C(=O)COc2ccc(Cl)cc21)Nc1ccc2c(c1)OCCO2
Cells [9]
  EC50: > 350 µM (not active)
Cells [10]
  EC50: > 350 µM (not active)

## O=C(COC(=O)c1cc([N+](=O)[O-])ccc1N1CCOCC1)Nc1c(Cl)cccc1Cl
Fatty acid synthase [11]
  IC50: 6.21 µM (active)
Fatty acid synthase [12]
  IC50: 7.85 µM (active)

## CCCCCCCN1C(Nc2ccccc2)=NC[C@@H]1Cc1ccccc1
[5]
  AC50: 6.34 µM (active)
[6]
  AC50: 23 µM (active)
[7]
  AC50: 4.82 µM (active)

## O=C(c1ccccc1)N1CC(COc2ccccc2)OC(c2ccco2)O1 (configuration not stated)
[4]
  EC50: 12.4 µM (active)

## CCOc1ccc(NC(=O)CN(c2cccc(C(F)(F)F)c2)S(C)(=O)=O)cc1
[4]
  EC50: 9.24 µM (active)

## CC1CCN(C(=O)C2CCN(CCCc3ccccc3)CC2)CC1
[4]
  EC50: 7.69 µM (active)

## Cc1cc(C)cc(NC(=O)CSc2nnc(Cc3cccn3C)n2-c2ccc(F)cc2)c1
[4]
  EC50: 2.01 µM (active)

## CC(/C=C/c1ccccc1F)=N\NC(=O)c1ccccc1
Cells [15]
  IC50: 21.8 µM (active)
[16]
  CC50: > 40 µM (active)

## CC(=O)OCc1c(C(F)(F)F)nn(C)c1Oc1cccc(C(F)(F)F)c1
[4]
  EC50: 8.45 µM (active)

## O=C(Nc1nc2ccccc2[nH]1)c1ccc(F)cc1
Cells [15]
  IC50: 4.33 µM (active)
[16]
  CC50: > 40 µM (active)

## N#CC1=C(N)Oc2cc(N)ccc2C1C1CC=CCC1 (configuration not stated)
[1]
  AC50: 5.72 µM (active)

## O=C1C2CCCCC2C(=O)N1c1nc(Cc2ccccc2)n[nH]1 (configuration not stated)
[18]
  IC50: > 100 µM (not active)
